Source: ChEMBL document CHEMBL1151948, “Lactones from Angiopteris caudatiformis” (J Nat Prod, 2009)

Tested on: HeLa
Assay: Cytotoxicity against human HeLa cells after 48 hrs by MTT assay
Type: functional, cell-based

For `C[C@H](O)[C@H]1OC(=O)C[C@H]1O[C@H]1C=CC(=O)O[C@H]1C` [ANGIOPTERLACTONE A], the IC50 was 68.8 µM.
